Where two headings read alike, the source gives them in different places. Positions of bridges follow the written chain, without caps; N, C: chain ends. Residues, ends and D or L forms follow the SMILES beside them.
Key:
hKv1.1 channel = experiment: Whole-cell patch clamp, hKv1.1 channel currents; format: cell-based, human; conditions: 1 μM peptide, mean ± SE, n ≥ 3, SEM
Description: (§1) The pRc/CMV-hKv1.3 was kindly provided by Professor Stephan Grissmer (University of Ulm, Ulm, Germany) and Professor Olaf Pongs (Zentrum für Molekulare Neurobiologie der Universität Hamburg, Hamburg, Germany). The cDNAs encoding hKv1.1 and hKv1.2 (from Professor Stephan Grissmer, University of Ulm, Ulm, Germany) were subcloned into the vector pIRES2-EGFP (TaKaRa Clontech, Mountain View, CA, USA). The cDNAs encoding hKv1.6 were subcloned into the vector pcDNA 3.1(+) (TaKaRa Clontech, Mountain View, CA, USA). A QuikChange Site-Directed Mutagenesis Kit (Stratagene, La Jolla, CA, USA) was used to produce the mutants based on the wild-type hKv1.3 channel plasmids. All plasmids and their mutants were verified by DNA sequencing before the expression. The three channel chimeras were, respectively, named by hKv1.3-M1 (425DPTSGFS432 → 425ERESQFP432), hKv1.3-M2 (452HPV456 → 452VPT456) and hKv1.3-M3 (425DPTSGFS432 → 425ERESQFP432, 452HPV456 → 452VPT456).
(§2) In a 5% CO2 incubator at 37 °C, HEK293T cells were cultured in DMEM medium (Gibco, Grand Island, NY, USA) supplemented with 10% fetal bovine serum and 1% penicillin/streptomycin. Potassium channel plasmids and pEGFP-N1 were co-transfected into the HEK293 cells using the ExFect Transfection Reagent (Vazyme, Nanjin, China). After one day of transfection, the potassium currents were recorded, and the positive cells were selected based on the presence of GFP fluorescence.
(§3) Whole-cell current measurement and data acquisition were performed using an EPC-10 patch-clamp amplifier controlled by Pulse (HEKA Elektronik, Lambrecht, Germany). The potassium currents were recorded according to the recording protocol for the Kv1 channel, as described in previously published references. Peptides were dissolved in an external solution containing 0.01% BSA for electrophysiological experiments. […]

hKv1.2 channel = experiment: Whole-cell patch clamp, hKv1.2 channel currents; format: cell-based, human; conditions: 1 μM peptide, mean ± SE, n ≥ 3, SEM
Description: as §1, §2, §3

hKv1.6 channel = experiment: Whole-cell patch clamp, hKv1.6 channel currents; format: cell-based, human; conditions: 1 μM peptide, mean ± SE, n ≥ 3, SEM
Description: as §1, §2, §3

[1] = system: hKv1.3-M1 channel (turret domain of hKv1.3 substituted by hKv1.2 region); experiment: Whole-cell patch clamp, chimeric hKv1.3-M1 channel currents; format: cell-based, human; conditions: mean ± SE, n ≥ 3, SEM
Experimental: In order to further investigate the effect of basic residue number on BmK-NSPK pharmacology, the activities of BmK-NSPK analogs were also tested on the Kv1.3 channel chimeras in this work. […] Based on the weak inhibition potencies of BmK-NSPK-7K and BmK-NSPK-8K towards hKv1.2 channel (Figure 5C,D), the work first constructed the chimeric hKv1.3-M1, in which the turret domain of hKv1.3 channel was substituted by the equivalent region of hKv1.2 channel (Figure 6A). Pharmacological experiments with 100 nM and 1 μM MeuKTX were able to inhibit 45.7 ± 7.9% and 82.8 ± 6.1% of hKv1.3-M1 channel currents, respectively (Figure 6B).
as §1, §2
(§4) Whole-cell current measurement and data acquisition were performed using an EPC-10 patch-clamp amplifier controlled by Pulse (HEKA Elektronik, Lambrecht, Germany). The potassium currents were recorded according to the recording protocol for the Kv1 channel, as described in previously published references. Peptides were dissolved in an external solution containing 0.01% BSA for electrophysiological experiments. The patch pipette solution contained 140 mM KF (Sigma, St. Louis, MC, USA), 2 mM MgCl2 (Sinopharm Chemical Reagent Co., Ltd., Shanghai, China), 1 mM EGTA (Sigma) and 10 mM HEPES (neoFroxx, Einhausen, Hessen, Germany) (pH adjusted to 7.4 with KOH (Sinopharm Chemical Reagent Co., Ltd., Shanghai, China)), and the bath solution contained 4.5 mM KCl, 160 Mm NaCl (Sinopharm Chemical Reagent Co., Ltd., Shanghai, China), 5 mM HEPES, 2 mM CaCl2 (Sinopharm Chemical Reagent Co., Ltd., Shanghai, China) and 1 mM MgCl2 (pH adjusted to 7.4 with NaOH (Sinopharm Chemical Reagent Co., Ltd., Shanghai, China)).
(§5) Graphing and data analysis were conducted using GraphPad Prism software (Version 8.0, San Diego, CA, USA), ClampFit software (version 10.2, Molecular Devices, Sunnyvale, CA, USA), and SigmaPlot software (version 12.0, IBM SPSS, Chicago, IL, USA). The dose–response relationship between the channel current and peptide inhibition was modeled by the modified Hill equation: Ipeptide/Icontrol = 1/{1 + [peptide]/IC50}, where Ipeptide represents the potassium current under peptide inhibition, Icontrol represents the peak current, IC50 is the half-maximal inhibition concentration and [peptide] represents the peptide concentration. The IC50 was obtained by fitting the Hill equation. Results are presented as mean ± SE, with each sample tested on at least three cells (n ≥ 3).

[2] = system: hKv1.3-M2 channel (filter region of hKv1.3 substituted by hKv1.2 region); experiment: Whole-cell patch clamp, chimeric hKv1.3-M2 channel currents; format: cell-based, human; conditions: mean ± SE, n ≥ 3, SEM
Experimental: Apart from the chimeric hKv1.3-M1, this work further constructed the chimeric hKv1.3-M2 channel, in which the filter region of hKv1.3 channel was substituted by the equivalent region of hKv1.2 channel (Figure 6A). Pharmacological experiments 100 nM and 1 μM MeuKTX were able to inhibit 78.3 ± 4.9% and 95.9 ± 1.3% of hKv1.3-M2 channel currents, respectively, which indicated the minor effect of channel filter region on MeuKTX binding (Figure 6B). However, more significant effects were also observed for BmK-NSPK analogs with different numbers of basic residues.
as §1, §2, §4, §5

[3] = system: hKv1.3-M3 channel (turret, pore helix and filter region of hKv1.3 replaced by hKv1.2 regions); experiment: Whole-cell patch clamp, chimeric hKv1.3-M3 channel currents; format: cell-based, human; conditions: mean ± SE, n ≥ 3, SEM
Description: as §1, §2, §4, §5

[4] = target: human Kv1.3 potassium channel (human) (UniProt P22001)
human Kv1.3 potassium channel (human), sequence (P22001 whole entry): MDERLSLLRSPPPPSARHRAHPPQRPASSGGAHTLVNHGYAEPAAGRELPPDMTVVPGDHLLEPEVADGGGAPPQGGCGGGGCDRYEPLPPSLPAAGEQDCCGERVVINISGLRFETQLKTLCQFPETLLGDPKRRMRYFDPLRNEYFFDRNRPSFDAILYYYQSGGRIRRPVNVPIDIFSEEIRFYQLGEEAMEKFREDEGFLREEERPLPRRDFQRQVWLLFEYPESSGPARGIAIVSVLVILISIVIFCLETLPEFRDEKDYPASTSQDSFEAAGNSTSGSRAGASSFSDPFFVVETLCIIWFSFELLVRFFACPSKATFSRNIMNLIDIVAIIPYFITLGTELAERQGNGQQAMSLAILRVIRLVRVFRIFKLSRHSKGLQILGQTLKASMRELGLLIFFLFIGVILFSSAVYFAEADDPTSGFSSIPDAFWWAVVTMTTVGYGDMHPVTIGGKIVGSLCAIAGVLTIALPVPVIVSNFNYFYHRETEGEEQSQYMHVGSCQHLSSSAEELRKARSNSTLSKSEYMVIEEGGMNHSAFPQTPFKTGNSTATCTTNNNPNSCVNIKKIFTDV

hKv1.1 channel (human) = hKv1.1 channel (human) (UniProt Q09470)
hKv1.1 channel (human), sequence (Q09470 whole entry): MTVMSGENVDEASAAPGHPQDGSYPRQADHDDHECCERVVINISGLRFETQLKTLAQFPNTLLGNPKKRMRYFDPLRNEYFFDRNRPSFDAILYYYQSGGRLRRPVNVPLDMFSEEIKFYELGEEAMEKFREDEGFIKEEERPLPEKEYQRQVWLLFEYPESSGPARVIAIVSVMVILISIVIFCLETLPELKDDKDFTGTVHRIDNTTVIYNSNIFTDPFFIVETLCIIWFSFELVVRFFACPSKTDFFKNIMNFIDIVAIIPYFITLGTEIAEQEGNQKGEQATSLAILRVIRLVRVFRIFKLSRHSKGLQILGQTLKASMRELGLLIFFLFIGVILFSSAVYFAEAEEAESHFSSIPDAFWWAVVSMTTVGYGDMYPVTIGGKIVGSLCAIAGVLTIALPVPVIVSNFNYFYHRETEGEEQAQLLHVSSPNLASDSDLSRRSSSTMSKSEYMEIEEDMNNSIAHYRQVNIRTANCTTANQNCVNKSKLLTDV

hKv1.2 channel (human) = hKv1.2 channel (human) (UniProt P16389)
hKv1.2 channel (human), sequence (P16389 whole entry): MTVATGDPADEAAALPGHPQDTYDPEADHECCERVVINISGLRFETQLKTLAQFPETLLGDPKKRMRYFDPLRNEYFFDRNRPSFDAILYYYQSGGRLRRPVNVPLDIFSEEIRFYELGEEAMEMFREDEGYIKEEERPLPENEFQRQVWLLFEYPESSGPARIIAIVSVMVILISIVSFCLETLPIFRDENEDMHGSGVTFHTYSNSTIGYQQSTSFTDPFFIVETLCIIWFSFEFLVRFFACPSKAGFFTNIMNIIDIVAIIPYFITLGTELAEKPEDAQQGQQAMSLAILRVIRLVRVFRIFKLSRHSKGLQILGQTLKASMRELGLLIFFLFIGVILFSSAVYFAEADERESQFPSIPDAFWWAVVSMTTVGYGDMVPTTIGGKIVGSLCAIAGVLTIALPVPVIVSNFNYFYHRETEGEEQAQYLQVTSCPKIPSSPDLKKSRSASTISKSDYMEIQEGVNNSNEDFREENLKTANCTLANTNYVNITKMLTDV

hKv1.6 channel (human) = hKv1.6 channel (human) (UniProt P17658)
hKv1.6 channel (human), sequence (P17658 whole entry): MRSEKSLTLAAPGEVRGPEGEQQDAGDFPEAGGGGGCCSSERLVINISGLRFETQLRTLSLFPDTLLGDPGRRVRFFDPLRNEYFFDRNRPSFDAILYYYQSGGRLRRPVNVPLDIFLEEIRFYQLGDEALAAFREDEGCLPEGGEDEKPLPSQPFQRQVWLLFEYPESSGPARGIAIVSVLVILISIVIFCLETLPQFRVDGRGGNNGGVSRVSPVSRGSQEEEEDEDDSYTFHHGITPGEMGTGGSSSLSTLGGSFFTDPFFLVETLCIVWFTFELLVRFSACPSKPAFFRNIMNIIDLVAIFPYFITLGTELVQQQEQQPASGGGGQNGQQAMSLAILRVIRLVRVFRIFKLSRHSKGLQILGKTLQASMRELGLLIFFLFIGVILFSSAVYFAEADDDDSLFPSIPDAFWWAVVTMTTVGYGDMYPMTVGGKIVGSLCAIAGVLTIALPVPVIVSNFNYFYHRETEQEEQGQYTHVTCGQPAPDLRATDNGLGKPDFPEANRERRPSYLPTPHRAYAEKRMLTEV

[5] = target: human Kv1.3 potassium channel (human) (UniProt P22001); remark: listed apart in the source

KTX-2 peptide, sequence (P45696 23-59): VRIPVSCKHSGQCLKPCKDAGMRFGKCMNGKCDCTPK
KTX-3 peptide, sequence (P59290 whole entry): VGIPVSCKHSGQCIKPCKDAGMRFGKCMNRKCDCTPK

CC[C@H](C)[C@H](NC(=O)CNC(=O)[C@@H](N)C(C)C)C(=O)N[C@@H](CC(N)=O)C(=O)N[C@H](C(=O)N[C@@H](CCCCN)C(=O)N[C@H]1CSSC[C@@H]2NC(=O)[C@H](CCCCN)NC(=O)CNC(=O)[C@H](Cc3ccccc3)NC(=O)[C@H](CCCNC(=N)N)NC(=O)[C@H](CCSC)NC(=O)CNC(=O)[C@H](C)NC(=O)[C@H](CC(=O)O)NC(=O)[C@H](CCCCN)NC(=O)[C@@H]3CSSC[C@@H](C(=O)N[C@H](C(=O)N4CCC[C@H]4C(=O)N[C@@H](CCCCN)C(=O)NCC(=O)O)[C@@H](C)O)NC(=O)[C@H](CC(=O)O)NC(=O)[C@H](CSSC[C@H](NC(=O)[C@H](CCC(N)=O)NC(=O)CNC(=O)[C@H](CO)NC(=O)[C@H](Cc4c[nH]cn4)NC(=O)[C@H](CCCCN)NC1=O)C(=O)N[C@@H](CC(C)C)C(=O)N[C@@H](CCCCN)C(=O)N1CCC[C@H]1C(=O)N3)NC(=O)[C@H](CCCCN)NC(=O)CNC(=O)[C@H](CC(N)=O)NC(=O)[C@H](CCSC)NC2=O)C(C)C [BmK-NSPK-7K] (H-VGINVKCKHSGQCLKPCKDAGMRFGKCMNGKCDCTPKG-OH; disulfide 7-27, 13-32, 17-34 (inferred); N-terminus and C-terminus assumed)
inhibition of hKv1.1 channel currents (hKv1.1 channel): 84.1 ± 7.0% | inhibition of hKv1.2 channel currents (hKv1.2 channel): 9.2 ± 0.6% | inhibition of hKv1.6 channel currents (hKv1.6 channel): 79.2 ± 2.4% | inhibition of hKv1.3-M1 channel currents ([1]; 100 nM peptide): 23.4 ± 3.4% | inhibition of hKv1.3-M1 channel currents ([1]; 1 μM peptide): 78.8 ± 3.4% | inhibition of hKv1.3-M2 channel currents ([2]; 100 nM peptide): 35.4 ± 6.7% | inhibition of hKv1.3-M2 channel currents ([2]; 1 μM peptide): 72.9 ± 7.0% | inhibition of hKv1.3-M3 channel currents ([3]; 100 nM peptide): 1.2 ± 0.21% | inhibition of hKv1.3-M3 channel currents ([3]; 1 μM peptide): 7.4 ± 0.64%

CC[C@H](C)[C@H](NC(=O)CNC(=O)[C@@H](N)C(C)C)C(=O)N[C@@H](CC(N)=O)C(=O)N[C@H](C(=O)N[C@@H](CCCCN)C(=O)N[C@H]1CSSC[C@@H]2NC(=O)[C@H](CCCCN)NC(=O)CNC(=O)[C@H](Cc3ccccc3)NC(=O)[C@H](CCCNC(=N)N)NC(=O)[C@H](CCSC)NC(=O)CNC(=O)[C@H](C)NC(=O)[C@H](CC(=O)O)NC(=O)[C@H](CCCCN)NC(=O)[C@@H]3CSSC[C@@H](C(=O)N[C@H](C(=O)N4CCC[C@H]4C(=O)N[C@@H](CCCCN)C(=O)O)[C@@H](C)O)NC(=O)[C@H](CC(=O)O)NC(=O)[C@H](CSSC[C@H](NC(=O)[C@H](CCC(N)=O)NC(=O)CNC(=O)[C@H](CO)NC(=O)[C@H](Cc4c[nH]cn4)NC(=O)[C@H](CCCCN)NC1=O)C(=O)N[C@@H](CC(C)C)C(=O)N[C@@H](CCCCN)C(=O)N1CCC[C@H]1C(=O)N3)NC(=O)[C@H](CCCCN)NC(=O)CNC(=O)[C@H](CC(N)=O)NC(=O)[C@H](CCSC)NC2=O)C(C)C [MeuKTX, reference compound] (H-VGINVKCKHSGQCLKPCKDAGMRFGKCMNGKCDCTPK-OH; disulfide 7-27, 13-32, 17-34 (inferred); N-terminus and C-terminus assumed)
inhibition of hKv1.1 channel currents (hKv1.1 channel): 90.7 ± 1.1% | inhibition of hKv1.2 channel currents (hKv1.2 channel): 14.6 ± 2.6% | inhibition of hKv1.6 channel currents (hKv1.6 channel): 77.4 ± 2.7% | inhibition of hKv1.3-M1 channel currents ([1]; 100 nM peptide): 45.7 ± 7.9% | inhibition of hKv1.3-M1 channel currents ([1]; 1 μM peptide): 82.8 ± 6.1% | inhibition of hKv1.3-M2 channel currents ([2]; 100 nM peptide): 78.3 ± 4.9% | inhibition of hKv1.3-M2 channel currents ([2]; 1 μM peptide): 95.9 ± 1.3% | inhibition of hKv1.3-M3 channel currents ([3]; 100 nM peptide): 3.9 ± 0.21% | inhibition of hKv1.3-M3 channel currents ([3]; 1 μM peptide): 16.1 ± 2.0%

BmK-NSPK peptide
inhibition of hKv1.3 channel currents by 1 μM peptide (whole-cell patch clamp, HEK293T) [4]: 2.3% | inhibition of hKv1.1 channel currents by 1 μM peptide (whole-cell patch clamp, HEK293T) (hKv1.1 channel (human)): 1.2% | inhibition of hKv1.2 channel currents by 1 μM peptide (whole-cell patch clamp, HEK293T) (hKv1.2 channel (human)): 1.7% | inhibition of hKv1.6 channel currents by 1 μM peptide (whole-cell patch clamp, HEK293T) (hKv1.6 channel (human)): 5.4%

BmK-NSPK-I18K/I26K/K28M (peptide)
inhibition of hKv1.3 channel currents by 1 μM peptide (whole-cell patch clamp, HEK293T) [5]: 26.5%

KTX-2 peptide (from UniProt P45696 23-59)
IC50 of inhibition of hKv1.3 channel currents (whole-cell patch clamp, HEK293T) [4]: 0.32 nM | inhibition of hKv1.3 channel currents by 1 μM peptide (whole-cell patch clamp, HEK293T) [4]: 94.9%

KTX-3 peptide (from UniProt P59290 1-37)
IC50 of inhibition of hKv1.3 channel currents (whole-cell patch clamp, HEK293T) [4]: 0.46 nM | inhibition of hKv1.3 channel currents by 1 μM peptide (whole-cell patch clamp, HEK293T) [4]: 91.6%

MeuKTX peptide
IC50 of inhibition of hKv1.3 channel currents (whole-cell patch clamp, HEK293T) [4]: 2.63 nM | inhibition of hKv1.1 channel currents by 1 μM peptide (whole-cell patch clamp, HEK293T) (hKv1.1 channel (human)): 90.7% | inhibition of hKv1.2 channel currents by 1 μM peptide (whole-cell patch clamp, HEK293T) (hKv1.2 channel (human)): 14.6% | inhibition of hKv1.6 channel currents by 1 μM peptide (whole-cell patch clamp, HEK293T) (hKv1.6 channel (human)): 77.4%
